In the supplement of paper PMC10307832:

What was measured:
Experiment in all cases: relative viability (nuclei count vs DMSO), 5 days (fraction); higher = more cells survive
CX-5461 + Palbociclib = compound: Cc1cnc(CNC(=O)c2c(=O)c3ccc(N4CCCN(C)CC4)nc3n3c2sc2ccccc23)cn1 [CX-5461] + CC(=O)c1c(C)c2cnc(Nc3ccc(N4CCNCC4)cn3)nc2n(C2CCCC2)c1=O [Palbociclib] (partner 0.5 µM)
In short: (§1)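 Relative viability equals treated-well nuclei counts divided by vehicle-well nuclei counts. Counts came from 4× images of lung cancer cell lines grown in 1536-well plates for 5 days after pin-tool dosing on the day after seeding. Dosing used one drug alone or a fixed anchor-drug dose plus five library-drug doses (not always all listed) in √10 steps, and values are medians of duplicate plates.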

IMD-0354 + Pemetrexed = compound: O=C(Nc1cc(C(F)(F)F)cc(C(F)(F)F)c1)c1cc(Cl)ccc1O [IMD-0354] + Nc1nc2[nH]cc(CCc3ccc(C(=O)N[C@@H](CCC(=O)O)C(=O)O)cc3)c2c(=O)[nH]1 [Pemetrexed] (partner 0.2 µM)
In short: as §1

IMD-0354 + Pictilisib = compound: O=C(Nc1cc(C(F)(F)F)cc(C(F)(F)F)c1)c1cc(Cl)ccc1O [IMD-0354] + CS(=O)(=O)N1CCN(Cc2cc3nc(-c4cccc5[nH]ncc45)nc(N4CCOCC4)c3s2)CC1 [Pictilisib] (partner 1 µM)
In short: as §1

CX-5461 + Alpelisib = compound: Cc1cnc(CNC(=O)c2c(=O)c3ccc(N4CCCN(C)CC4)nc3n3c2sc2ccccc23)cn1 [CX-5461] + Cc1nc(NC(=O)N2CCC[C@H]2C(N)=O)sc1-c1ccnc(C(C)(C)C(F)(F)F)c1 [Alpelisib] (partner 2 µM)
In short: as §1

Cell Line	relative viability (CX-5461 + Palbociclib; first compound 0.01 µM)	relative viability (CX-5461 + Palbociclib; first compound 0.03162 µM)	relative viability (CX-5461 + Palbociclib; first compound 0.1 µM)	relative viability (CX-5461 + Palbociclib; first compound 0.3162 µM)	relative viability (CX-5461 + Palbociclib; first compound 1 µM)	relative viability (IMD-0354 + Pemetrexed; first compound 0.04 µM)	relative viability (IMD-0354 + Pemetrexed; first compound 0.1265 µM)	relative viability (IMD-0354 + Pemetrexed; first compound 0.4 µM)	relative viability (IMD-0354 + Pemetrexed; first compound 1.265 µM)	relative viability (IMD-0354 + Pemetrexed; first compound 4 µM)	relative viability (IMD-0354 + Pictilisib; first compound 0.04 µM)	relative viability (IMD-0354 + Pictilisib; first compound 0.1265 µM)	relative viability (IMD-0354 + Pictilisib; first compound 0.4 µM)	relative viability (IMD-0354 + Pictilisib; first compound 1.265 µM)	relative viability (IMD-0354 + Pictilisib; first compound 4 µM)	relative viability (CX-5461 + Alpelisib; first compound 0.03162 µM)	relative viability (CX-5461 + Alpelisib; first compound 0.1 µM)	relative viability (CX-5461 + Alpelisib; first compound 1 µM)	relative viability (CX-5461 + Alpelisib; first compound 0.01 µM)	relative viability (CX-5461 + Alpelisib; first compound 0.3162 µM)
NCI-H2342	0.513	0.505	0.486	0.531	0.522	0.814	0.822	0.585	0.508	0.408										
LK-2	0.54	0.972	0.724		0.564	0.284	0.31		0.172	0.111	0.425	0.504	0.408	0.381	0.246	1.22	1.37	0.864		
SK-LU-1	0.412	0.407	0.376	0.388	0.358	1.11	0.777	0.44	0.225	0.249	0.681	0.583	0.379	0.33	0.233	1.35	0.724	0.332	1.08	0.945
HCC-366	0.451	0.546	0.355	0.308	0.287	0.18	0.181	0.0918	0.0649	0.0246	0.16	0.193	0.168	0.148	0.0681	0.529	0.33	0.234	0.591	0.507
201T	0.35	0.344	0.363	0.355	0.35	0.271	0.343	0.368	0.319	0.234	0.785	0.661	0.584	0.59	0.41	1.05	1.01	1	1.01	1.03
HCC-827	0.452	0.529	0.538	0.437	0.582	0.26	0.267	0.243	0.19	0.163	1.03	0.795	0.691	0.66	0.337	0.998	1.02	0.989	0.996	0.977
NCI-H647	0.413	0.356	0.353	0.414	0.167	0.182	0.148	0.185	0.111	0.0986	0.626	0.524	0.184	0.232	0.0513	1.22	1.06	0.211	1.29	1.27
NCI-H2023	0.413	0.373		0.309	0.0908	0.217	0.212	0.118	0.0926	0.103	0.301	0.255	0.202	0.0996	0.0899	0.606		0.0938	0.646	0.57
NCI-H520	0.219	0.212	0.25	0.247	0.176	0.668	0.838	0.392	0.149	0.139	0.372	0.287	0.195	0.17	0.117	0.945	0.856	0.619	0.841	0.712
RERF-LC-KJ	1.03	1.16	0.713	0.956	0.742	0.536	0.462	0.376	0.126	0.153	0.518	0.595	0.542	0.233	0.226	0.951	0.933	0.773	0.832	0.754
A-427	0.526	0.533	0.491	0.329	0.425	1.08	0.982	0.531	0.157	0.169	0.749	0.683	0.674	0.164	0.116	1.16	1.17	1.06	1.08	
NCI-H441	0.233	0.243	0.205	0.203	0.194	0.255	0.251	0.289	0.177	0.147	0.543	0.521	0.316	0.266	0.183	0.876	0.694	0.438	0.76	0.727
NCI-H1703											0.273	0.241	0.235	0.157	0.123	0.419	0.28	0.267	0.314	0.332
NCI-H1792	0.608	0.719	0.736	0.736	0.602	1.01	0.57	0.493	0.163	0.152	0.298	0.225	0.622	0.203	0.204	0.744	0.706	0.602	0.774	0.898
Calu-6											0.988	0.87	0.379	0.121	0.0686	1.15	0.916	0.304	0.984	1.07
SW 1573	0.343	0.388	0.125	0.371	0.109	0.872	0.799	0.271	0.131	0.0794	0.577	0.468	0.263	0.418	0.137	0.788	0.91	0.36	0.733	0.822
PC-3 [JPC-3]	0.517		0.533	0.543	0.512	1.42	1	1.03	0.305	0.405	0.779	0.701	0.588	0.376	0.229	1.08	1.02	0.932	1.06	1.07
EMC-BAC-2	0.515	0.515	0.468	0.433	0.412	0.398	0.399	0.338	0.319	0.306	0.647	0.545	0.41	0.416	0.225	0.833	0.782	0.717	0.752	0.698
NCI-H1395	0.624	0.599	0.586	0.572	0.498	0.986	0.81	0.616	0.334	0.323	0.592	0.589	0.555	0.346	0.348	0.935	0.897	0.561	1.31	0.704

Cell Line	relative viability (CX-5461 + Palbociclib; first compound 0.01 µM)	relative viability (CX-5461 + Palbociclib; first compound 0.03162 µM)	relative viability (CX-5461 + Palbociclib; first compound 0.1 µM)	relative viability (CX-5461 + Palbociclib; first compound 0.3162 µM)	relative viability (CX-5461 + Palbociclib; first compound 1 µM)	relative viability (IMD-0354 + Pemetrexed; first compound 0.04 µM)	relative viability (IMD-0354 + Pemetrexed; first compound 0.1265 µM)	relative viability (IMD-0354 + Pemetrexed; first compound 0.4 µM)	relative viability (IMD-0354 + Pemetrexed; first compound 1.265 µM)	relative viability (IMD-0354 + Pemetrexed; first compound 4 µM)	relative viability (IMD-0354 + Pictilisib; first compound 0.04 µM)	relative viability (IMD-0354 + Pictilisib; first compound 0.1265 µM)	relative viability (IMD-0354 + Pictilisib; first compound 0.4 µM)	relative viability (IMD-0354 + Pictilisib; first compound 1.265 µM)	relative viability (IMD-0354 + Pictilisib; first compound 4 µM)	relative viability (CX-5461 + Alpelisib; first compound 0.03162 µM)	relative viability (CX-5461 + Alpelisib; first compound 0.1 µM)	relative viability (CX-5461 + Alpelisib; first compound 1 µM)	relative viability (CX-5461 + Alpelisib; first compound 0.01 µM)	relative viability (CX-5461 + Alpelisib; first compound 0.3162 µM)
NCI-H2126	0.351	0.351	0.358	0.351	0.365	0.74	0.722	0.569	0.37	0.266	0.527	0.478	0.471	0.353	0.302	0.784	0.717	0.772	0.794	0.78
NCI-H3122	0.192	0.191	0.175	0.169	0.186	0.196	0.211	0.18	0.281	0.15	0.737	0.554	0.527	0.174	0.173	0.951	0.762	0.677	0.836	0.773
NCI-H1975	0.788	0.553	0.665	0.826	0.382	0.292	0.311	0.234	0.175	0.157	0.329	0.316	0.26	0.155	0.137	0.641	0.614	0.408	0.74	0.64
NCI-H2170	0.412	0.361	0.414	0.406	0.422	0.275	0.302	0.235	0.286	0.191	0.283	0.304	0.308	0.284	0.277	0.834	0.889	0.718	0.766	0.913
LU99A	0.411	0.434	0.389	0.322	0.416	0.194	0.201	0.143	0.188	0.149	0.287	0.304	0.357	0.152	0.156	0.544	0.527	0.413	0.536	0.364
NCI-H2347	0.424	0.437	0.427	0.407	0.404	0.387	0.435	0.373	0.365	0.27	0.77	0.532	0.679	0.624	0.392	1.04	1.07	0.994	1.11	0.834
NCI-H1299											0.753	0.717	0.369	0.0957	0.0657	1.04	1.08	0.992	1.04	1.1
NCI-H727	0.601	0.601	0.717	0.65	0.637						0.384	0.368	0.35	0.237	0.238	0.597	0.547	0.592	0.606	0.611
ABC-1	0.675		0.879	0.367	0.918						0.753	0.643	0.447	0.25	0.263	0.916		0.751	1.12	1.09
NCI-H1650	0.374	0.364	0.35	0.289	0.151	0.364	0.352	0.309	0.259	0.12	0.722	0.484	0.434	0.166	0.191					
ChaGo-K-1	0.965	0.95	0.927	0.933	0.899	0.26	0.259	0.269	0.23	0.208	1.11	1.22	0.495	0.216	0.301					
NCI-H1648	0.32	0.267	0.254	0.274	0.284	0.653	0.693	0.401	0.455	0.277										
NCI-H596						0.546	0.526	0.344	0.461	0.396	0.383	0.381	0.375	0.372	0.34	0.494	0.52	0.441	0.509	0.524
NCI-H1563						0.815	0.9	0.669	0.5	0.231	0.635	0.704	0.595	0.387	0.318	0.85	0.899	0.489	0.903	0.901
A549											0.655	0.547	0.237	0.0721	0.124	0.561		0.0561	0.771	0.508
NCI-H522	1.04	0.957	1.18		0.993	1.35	0.895	0.91	0.62	0.397										
SW 900	0.533	0.538		0.621	0.519	0.544	0.519	0.329	0.182	0.196										
IA-LM												0.377	0.216	0.0793	0.112	0.715	0.593	0.316	0.873	0.837
EBC-1											0.421	0.327	0.29	0.153	0.157	0.943	0.75	0.425	0.899	0.775
